16 compounds from patent publication US8492375B2, “1-benzoyl substituted diazepine derivatives as selective histamine H3 receptor agonists” (Glaxo Group Limited, priority 2003, dated 2013) can be followed below.

One assay addresses T1, human H1 receptor (Homo sapiens, UniProt P35367).
T1 construct: expressed in transfected cells
In words: Histamine H1 functional antagonist assay (FLIPR, histamine induced increase in fluorescence). The class given is cell-based. To be noted: Chinese hamster ovary cells stably expressing the human H1 receptor; read-out: antagonism pKb, histamine H1 functional antagonist assay (converted). On the procedure: (iii) Generation of Histamine H1 Cell Line
The human H1 receptor was cloned using known procedures described in the literature [Biochem. Biophys. Res. Commun.
(III) Histamine H1 Functional Antagonist Assay
Compounds are assayed in a black walled clear bottom 384-well plate with cells seeded at 10000 cells/well. […] Each well is treated with 10 μl of a solution of FLUO4AM (10 μM in Tyrodes buffer at pH 7.40) and plates are then incubated for 60 minutes at 37° C. Wells are then washed with Tyrodes buffer using a EMBLA cell washer system, leaving 400 buffer in each well, and then treated with 100 of test compound in Tyrodes buffer. Each plate is incubated for 30 min to allow equilibration of the test compound with the receptor. Each well is then treated with 100 of histamine solution in Tyrodes buffer.
Functional antagonism is indicated by a suppression of histamine induced increase in fluorescence, as measured by the FLIPR system (Molecular Devices). By means of concentration effect curves, functional potencies are determined using standard pharmacological mathematical analysis.

The target in another assay is histamine H3 receptor (Homo sapiens, UniProt Q9Y5N1). As to the kind of experiment: Histamine H3 functional antagonist assay ([35S]GTPγS binding, SPA, membranes of CHO K1 cells). To be noted: pKb, antagonism of 0.3 μM histamine, membranes with human H3 receptor.

Molecules are shown by their SMILES. Counter-ions that a name gives are not always drawn. Some results are limits rather than exact numbers.

T1 sequence (P35367 whole entry): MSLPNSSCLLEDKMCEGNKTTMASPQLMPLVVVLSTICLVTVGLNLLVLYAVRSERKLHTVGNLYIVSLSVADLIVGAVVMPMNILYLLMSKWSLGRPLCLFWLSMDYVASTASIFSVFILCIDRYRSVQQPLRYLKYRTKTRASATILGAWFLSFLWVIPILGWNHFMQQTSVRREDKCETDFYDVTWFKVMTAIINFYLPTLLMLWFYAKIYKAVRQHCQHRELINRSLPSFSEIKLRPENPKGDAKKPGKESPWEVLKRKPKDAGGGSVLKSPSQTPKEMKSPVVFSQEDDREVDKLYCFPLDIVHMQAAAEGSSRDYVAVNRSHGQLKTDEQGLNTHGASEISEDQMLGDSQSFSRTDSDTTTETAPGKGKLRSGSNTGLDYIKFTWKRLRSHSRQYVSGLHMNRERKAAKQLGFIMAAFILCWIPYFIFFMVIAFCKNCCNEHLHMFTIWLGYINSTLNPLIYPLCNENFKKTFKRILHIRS
histamine H3 receptor, sequence (Q9Y5N1 whole entry): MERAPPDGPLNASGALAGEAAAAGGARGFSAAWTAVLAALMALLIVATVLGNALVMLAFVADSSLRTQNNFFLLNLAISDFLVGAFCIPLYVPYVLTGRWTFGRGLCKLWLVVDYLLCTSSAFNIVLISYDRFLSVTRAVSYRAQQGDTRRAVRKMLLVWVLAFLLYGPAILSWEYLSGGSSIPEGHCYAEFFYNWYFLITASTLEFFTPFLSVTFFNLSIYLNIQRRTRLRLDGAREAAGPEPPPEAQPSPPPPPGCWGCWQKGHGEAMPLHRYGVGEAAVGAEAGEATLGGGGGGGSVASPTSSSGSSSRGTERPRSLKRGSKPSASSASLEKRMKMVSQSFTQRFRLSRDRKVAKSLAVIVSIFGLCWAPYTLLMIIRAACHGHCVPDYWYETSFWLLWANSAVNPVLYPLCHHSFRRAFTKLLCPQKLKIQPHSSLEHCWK
Description for histamine H3 receptor: Ligated DNA was transformed into competent DH5α E. coli host bacterial cells and plated onto Luria Broth (LB) agar containing Zeocin™ (an antibiotic which allows the selection of cells expressing the sh ble gene which is present on pGene and pSwitch) at 50 μg ml^−1. Colonies containing the re-ligated plasmid were identified by restriction analysis. DNA for transfection into mammalian cells was prepared from 250 ml cultures of the host bacterium containing the pGeneH3 plasmid and isolated using a DNA preparation kit (Qiagen Midi-Prep) as per manufacturers guidelines (Qiagen).
CHO K1 cells previously transfected with the pSwitch regulatory plasmid (InVitrogen) were seeded at 2×10e6 cells per T75 flask in Complete Medium, containing Hams F12 (GIBCOBRL, Life Technologies) medium supplemented with 10% v/v dialysed foetal bovine serum, L-glutamine, and hygromycin (100 μg ml^−1), 24 hours prior to use. Plasmid DNA was transfected into the cells using Lipofectamine plus according to the manufacturers guidelines (InVitrogen). 48 hours post transfection cells were placed into complete medium supplemented with 500 μg ml^−1 Zeocin™
10-14 days post selection 10 nM Mifepristone (InVitrogen), was added to the culture medium to induce the expression of the receptor. […] Approximately 1×10e7 cells were examined for receptor expression by staining with a rabbit polyclonal antibody, 4a, raised against the N-terminal domain of the histamine H3 receptor, incubated on ice for 60 minutes, followed by two washes in sorting medium. […] Following two further washes with Sorting Medium, cells were filtered through a 50 μm Filcon™ (BD Biosciences) and then analysed on a FACS Vantage SE Flow Cytometer fitted with an Automatic Cell Deposition Unit. […] Positively stained cells were sorted as single cells into 96-well plates, containing Complete Medium containing 500 μg ml^−1 Zeocin™ and allowed to expand before reanalysis for receptor expression via antibody and ligand binding studies.
(ii) Membrane Preparation from Cultured Cells
All steps of the protocol are carried out at 4° C. and with pre-cooled reagents. The cell pellet is resuspended in 10 volumes of buffer A2 containing 50 mM N-2-hydroxyethylpiperazine-N′-2-ethanesulfonic acid (HEPES) (pH 7.40) supplemented with 10e-4M leupeptin (acetyl-leucyl-leucyl-arginal; Sigma L2884), 25 μg/ml bacitracin (Sigma B0125), 1 mM ethylenediamine tetra-acetic acid (EDTA), 1 mM phenylmethylsulfonyl fluoride (PMSF) and 2×10e-6M pepstain A (Sigma). The cells are then homogenised by 2×15 second bursts in a 1 liter glass Waring blender, followed by centrifugation at 500 g for 20 minutes. The supernatant is then spun at 48,000 g for 30 minutes. The pellet is resuspended in 4 volumes of buffer A2 by vortexing for 5 seconds, followed by homogenisation in a Dounce homogeniser (10-15 strokes). At this point the preparation is aliquoted into polypropylene tubes and stored at −70° C.
(II) Histamine H3 Functional Antagonist Assay
The plate is then incubated on a shaker at room temperature for 30 minutes followed by centrifugation for 5 minutes at 1500 rpm. The plate is read between 3 and 6 hours after completion of centrifuge run in a Wallac Microbeta counter on a 1 minute normalised tritium count protocol. Data is analysed using a 4-parameter logistic equation. Basal activity used as minimum i.e. histamine not added to well.

For the compound `N#Cc1ccc(-c2ccc(C(=O)N3CCCN(C4CCC4)CC3)cc2)cc1` [Example 1, 4′-[(4-Cyclobutylhexahydro-1H-1,4-diazepin-1-yl)carbonyl]-4-biphenylcarbonitrile hydrochloride], the Kb on human H1 receptor is greater than 1000 nM; on histamine H3 receptor it was less than 0.316 nM.
`CC(=O)c1ccc(-c2ccc(C(=O)N3CCCN(C4CCC4)CC3)cc2)cc1` [Example 2, 1-{4′-[(4-Cyclobutylhexahydro-1H-1,4-diazepin-1-yl)carbonyl]-4-biphenylyl}ethanone hydrochloride]: the Kb is greater than 1000 nM at human H1 receptor and less than 0.316 nM on histamine H3 receptor.
For the compound `O=C(c1ccc(-n2cnnn2)cc1)N1CCCN(C2CCC2)CC1` [Example 7, 1-Cyclobutyl-4-{[4-tetrazol-1-yl)phenyl]carbonyl}hexahydro-1H-1,4-diazepine hydrochloride], the results for the Kb on human H1 receptor and at histamine H3 receptor were greater than 1000 nM and no more than 1 nM, respectively.
As to `O=C(c1ccc(-c2nc(-c3ccc(F)cc3)cs2)cc1)N1CCCN(C2CCC2)CC1` [Example 8, 1-Cyclobutyl-4-({4-[4-(4-fluorophenyl)-1,3-thiazol-2-yl]phenyl}carbonyl) hexahydro-1H-1,4-diazepine hydrochloride], the Kb on human H1 receptor is greater than 1000 nM; at histamine H3 receptor, no more than 1 nM.
For `O=C(c1ccc(N2CCS(=O)(=O)CC2)cc1)N1CCCN(C2CCC2)CC1` [Example 9, 1-Cyclobutyl-4-{[4-(1,1-dioxido-4-thiomorpholinyl)phenyl]carbonyl}hexahydro-1H-1,4-diazepine hydrochloride], in that order: greater than 1000 nM and no more than 1 nM.
Take `CC(C)N1CCCN(C(=O)c2ccc(OC3CCOCC3)cc2)CC1` [Example 10, 1-(Isopropyl)-4-{[4-(tetrahydro-2H-pyran-4-yloxy)phenyl]carbonyl}hexahydro-1H-1,4-diazepine hydrochloride]: the Kb on human H1 receptor was greater than 1000 nM.
For the compound `O=C(c1ccc(-c2ccc(C(F)(F)F)nc2)cc1)N1CCCN(C2CCC2)CC1` [Example 11, 1-Cyclobutyl-4-({4-[6-(trifluoromethyl)-3-pyridinyl]phenyl}carbonyl)hexahydro-1H-1,4-diazepine hydrochloride], the values for the Kb on human H1 receptor and at histamine H3 receptor were greater than 1000 nM and less than 0.316 nM, respectively.
In the case of `N#Cc1ccc(-c2ccc(C(=O)N3CCCN(C4CCC4)CC3)cc2)nc1` [Example 12, 6-{4-[(4-Cyclobutylhexahydro-1H-1,4-diazepin-1-yl)carbonyl]phenyl}-3-cyanopyridine hydrochloride], the Kb was greater than 1000 nM at human H1 receptor and less than 0.316 nM on histamine H3 receptor.
As for `CNC(=O)c1ccc(-c2ccc(C(=O)N3CCCN(C4CCC4)CC3)cc2)cn1` [Example 13, 5-{4-[(4-Cyclobutylhexahydro-1H-1,4-diazepin-1-yl)carbonyl]phenyl}-N-methyl-2-pyridinecarboxamide hydrochloride], the values for the Kb at human H1 receptor and at histamine H3 receptor were greater than 1000 nM and no more than 1 nM, respectively.
The corresponding values for `N#Cc1ccc(-c2ccc(C(=O)N3CCCN(C4CCC4)CC3)cc2)cn1` [Example 14, 5-{4-[(4-Cyclobutylhexahydro-1H-1,4-diazepin-1-yl)carbonyl]phenyl}-2-cyanopyridine hydrochloride] are greater than 1000 nM and no more than 1 nM.
As to `CC(C)N1CCCN(C(=O)c2ccc(-c3ccc(C#N)nc3)cc2)CC1` [Example 15, 5-(4-{[4-(1-Isopropyl)hexahydro-1H-1,4-diazepin-1-yl]carbonyl}phenyl)-2-cyanopyridine hydrochloride], at human H1 receptor, the Kb was greater than 1000 nM.
Regarding `CNC(=O)c1ccc(-c2ccc(C(=O)N3CCCN(C(C)C)CC3)cc2)cn1` [Example 16, N-Methyl-5-(4-{[4-(1-isopropyl)hexahydro-1H-1,4-diazepin-1-yl]carbonyl}phenyl)-2-pyridinecarboxamide hydrochloride], the Kb is greater than 1000 nM at human H1 receptor and no more than 1 nM on histamine H3 receptor.
In the case of `O=C(c1ccc(-c2ccc(C(F)(F)F)nn2)cc1)N1CCCN(C2CCC2)CC1` [Example 22, 1-Cyclobutyl-4-({4-[6-(trifluoromethyl)-3-pyridazinyl]phenyl}carbonyl)hexahydro-1H-1,4-diazepine hydrochloride], the Kb on human H1 receptor is greater than 1000 nM; on histamine H3 receptor, no more than 1 nM.
For `O=C(c1ccc(-c2cnc(C(F)(F)F)nc2)cc1)N1CCCN(C2CCC2)CC1` [Example 23, 1-Cyclobutyl-4-({4-[2-(trifluoromethyl)-5-pyrimidinyl]phenyl}carbonyl)hexahydro-1H-1,4-diazepine hydrochloride], in that order: greater than 1000 nM and no more than 1 nM.
In the case of `O=C(c1ccc(-c2ncco2)cc1)N1CCCN(C2CCC2)CC1` [Example 56, 1-Cyclobutyl-4-{[4-(1,3-oxazol-2-yl)phenyl]carbonyl}hexahydro-1H-1,4-diazepine hydrochloride], the Kb on histamine H3 receptor was no more than 1 nM.
Compound `Cc1noc(-c2ccc(C(=O)N3CCCN(C4CCC4)CC3)cc2)n1` [Example 58, 1-Cyclobutyl-4-{[4-(3-methyl-1,2,4-oxadiazol-5-yl)phenyl]carbonyl}hexahydro-4H-1,4-diazepine hydrochloride] returned a Kb at histamine H3 receptor of less than 0.316 nM.
